Assay results as given in article PMC12027946, “Ionic and Non-Ionic Counterparts Based on Bis(Uracilyl)Alkane Moiety with Highest Selectivity Towards Acetylcholinesterase for Protection Against Organophosphate Poisoning and Treating Alzheimer’s Disease” (International Journal of Molecular Sciences, 2025).
Like-named read-outs stand apart in the source and are kept apart here.

How the values were obtained:
human AChE [1] = molecular target: T1, human AChE (Homo sapiens, UniProt P22303); details: Table 1, bisuracils 1a–f, cited from earlier work; for AChE Selectivity: (IC50 BuChE)/(IC50 AChE)
T1 construct: purchased Sigma-Aldrich
T1 sequence (P22303 32-614): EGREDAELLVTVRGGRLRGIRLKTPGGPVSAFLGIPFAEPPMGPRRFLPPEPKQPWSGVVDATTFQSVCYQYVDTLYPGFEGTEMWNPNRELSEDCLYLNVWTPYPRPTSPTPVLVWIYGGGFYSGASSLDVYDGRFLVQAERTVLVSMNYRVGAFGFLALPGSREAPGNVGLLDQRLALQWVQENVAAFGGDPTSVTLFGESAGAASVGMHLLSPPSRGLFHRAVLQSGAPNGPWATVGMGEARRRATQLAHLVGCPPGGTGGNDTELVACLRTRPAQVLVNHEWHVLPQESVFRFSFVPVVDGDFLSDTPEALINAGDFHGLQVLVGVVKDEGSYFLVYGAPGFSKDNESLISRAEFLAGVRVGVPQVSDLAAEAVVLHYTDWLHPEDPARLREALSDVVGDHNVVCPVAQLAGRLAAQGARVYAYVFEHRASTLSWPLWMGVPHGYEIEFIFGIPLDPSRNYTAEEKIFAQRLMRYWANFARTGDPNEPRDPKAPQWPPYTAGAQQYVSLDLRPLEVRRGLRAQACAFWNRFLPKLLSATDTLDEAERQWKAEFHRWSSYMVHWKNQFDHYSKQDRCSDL

BChE from human plasma [2] = molecular target: T2, BChE from human plasma (Homo sapiens, UniProt P06276); details: Table 1; bisuracils 1a–f; read-out: IC50 BuChE; cited from earlier work
T2 construct: butyrylcholiesterase from human plasma; purchased Sigma-Aldrich; host or cells: human plasma
T2 sequence (P06276 29-602): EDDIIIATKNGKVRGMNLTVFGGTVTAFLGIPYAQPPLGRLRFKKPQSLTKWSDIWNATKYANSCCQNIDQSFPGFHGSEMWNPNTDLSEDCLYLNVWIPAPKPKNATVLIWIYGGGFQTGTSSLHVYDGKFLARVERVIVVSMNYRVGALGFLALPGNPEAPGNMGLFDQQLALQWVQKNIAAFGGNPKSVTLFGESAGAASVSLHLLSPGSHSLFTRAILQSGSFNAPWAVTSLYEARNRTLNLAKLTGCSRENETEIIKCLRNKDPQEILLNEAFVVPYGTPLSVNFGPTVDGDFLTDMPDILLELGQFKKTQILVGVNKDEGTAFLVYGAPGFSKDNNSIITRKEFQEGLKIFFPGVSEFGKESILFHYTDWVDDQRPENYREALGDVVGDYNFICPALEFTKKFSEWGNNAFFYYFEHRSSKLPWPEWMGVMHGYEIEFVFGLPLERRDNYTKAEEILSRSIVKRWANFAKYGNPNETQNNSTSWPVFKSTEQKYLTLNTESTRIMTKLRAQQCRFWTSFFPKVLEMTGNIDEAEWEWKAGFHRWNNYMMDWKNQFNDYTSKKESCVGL

human AChE [3] = molecular target: T1, human AChE; experiment: In vitro cholinesterase inhibition (Ellman), AChE; assay type: biochemical; details: for IC50: read-out: IC50 AChE; for AChE Selectivity: (IC50 BuChE)/(IC50 AChE)
Protocol: (§1) Inhibitory activities of the tested compounds against AChE and BChE were measured according to Ellman et al.. Enzyme-catalysed hydrolysis of ATCHh was carried out at 25 °C in 0.1 M phosphate buffer (pH 8.0) containing 0.25 U AChE, 1 mM ATCHh as substrates, and 0.1 mM of DTNB. In experiments with BuChE, 0.1 M phosphate buffer (pH 7.0) and BuTChh as a substrate were used. The tested compounds were pre-incubated with the enzyme for two minutes prior to the addition of the substrate and the subsequent recording of hydrolysis kinetics. […] A sample without an inhibitor was used as a control (100% cholinesterase activity). A sample without a substrate was used as a blank. Experiments were performed in triplicate.

BChE from human plasma [4] = molecular target: T2, BChE from human plasma; experiment: In vitro cholinesterase inhibition (Ellman), BuChE; assay type: biochemical; details: read-out: IC50 BuChE
Protocol: as §1

[5] = tested on: mice poisoned with 2×LD50 of POX; experiment: Protection against POX toxicity (pre-treatment); assay type: in vivo; details: for relative risk of death (RRD): Cox analysis over 10 h
Protocol: The concept of using reversible AChE inhibition as a preventive strategy to enhance the efficacy of traditional antidotes in OP poisoning is a well-established principle. This study explores the potential of bisuracil 2b as a preventive agent to protect AChE from irreversible inhibition caused by paraoxon (POX), a model OP. […] Following POX administration, the standard antidote atropine was given at a dose of 15 mg/kg within one minute. […] Increasing the dose of bisuracil 2b reduced the protective effect in POX poisoned animals (Table 3).
We also estimated the relative risk of death (RRD) as a function of precocity (from min to hours) over a period of 10 h by Cox survival analysis. Statistical differences in the number of surviving animals between experimental groups were tested using the Cox–Mantel multisample logarithmic rank criterion. It was shown that, in mice exposed to 0.42 mg/kg of POX, RRD = 1 (Figure 5). However, in animals that received atropine within 1 min after poisoning, POX-induced mortality was lower (RRD = 0.5; Figure 5).
The tested compound was administered via i.p. before POX injection.

[6] = tested on: scopolamine-induced amnesia in mice; experiment: Novel object recognition test, scopolamine-induced amnesia; assay type: in vivo
Protocol: This study explored the ability of bisuracil 3c to counteract scopolamine-induced amnesia in mice, utilising behavioural assessments conducted through the novel object recognition test. […] The induction of amnesia was facilitated by the i.p. injection of scopolamine (1.5 mg/kg) 50 min prior to testing. […]. An equivalent amount of the vehicle was administered to a control group of mice.
The experiments were carried out on CD1 mice of both sexes weighing 24–25 g. The novel object recognition test was conducted over a period of three days. On the first day, the mice were placed individually into the square testing arena with black walls (50 cm in length, 50 cm in width, 38 cm in height) for 5 min without any objects. On the second day, two identical objects were placed in the central part of the arena, and the mice were allowed to explore the objects for 10 min. Test compounds were administered prior to testing on the second day. The induction of amnesia was facilitated by i.p. injection of scopolamine (1.5 mg/kg) 50 min prior to testing. Tested compounds were administered i.p. 30 min prior to testing. The control group of animals was administered with an equivalent amount of vehicle. On the third day, the mice were presented with a familiar and a novel object for 10 min. The time of exploration of each object by the mice was recorded using a digital camera. After each test, the arena was cleaned with a solution of 70% ethanol. At the end of the test, the preference index (exploration of novel object/total exploration time × 100) was calculated.

AChE = details: cited from earlier work
[7] = Table 1, recombinant human AChE, 25 °C, pH 8.0
[8] = Table 1, BChE from human plasma, pH 7.0

Question: Which “AChE Selectivity” value (human AChE [1]) does the source give for `CC[N+](CC)(CCCCCn1c(=O)ccn(CCCCCn2c(C)cc(=O)n(C)c2=O)c1=O)Cc1ccccc1[N+](=O)[O-]` [1a] here?
Answer: The value was 112,676.

Question: What about the IC50 (human AChE [1]) of the same compound?
Answer: The IC50 was 0.0004 ± 3e-05 µM.

Question: What about the IC50 (BChE from human plasma [2]) of the same compound?
Answer: The IC50 was 40 µM.

Question: Which results are given for `CC[N+](CC)(CCCCCn1c(=O)ccn(CCCCCCn2c(C)cc(=O)n(C)c2=O)c1=O)Cc1ccccc1[N+](=O)[O-]` [1b]?
Answer: AChE Selectivity (human AChE [1]): 60,000; IC50 (human AChE [1]): 0.0001 ± 1e-05 µM; IC50 (BChE from human plasma [2]): 6 ± 0.43 µM

Question: Which “AChE Selectivity” value (human AChE [1]) does the source give for `CC[N+](CC)(CCCCCn1c(=O)ccn(CCCn2c(C)cc(=O)n(C)c2=O)c1=O)Cc1ccccc1C(F)(F)F` [1c] here?
Answer: Its value is 220,000.

Question: And the IC50 (human AChE [1])?
Answer: The IC50 was 0.002 ± 0.0002 µM.

Question: What about the IC50 (BChE from human plasma [2]) of the same compound?
Answer: The IC50 was 440 µM.

Question: What does the source list for `CC[N+](CC)(CCCCCn1c(=O)ccn(CCCCn2c(C)cc(=O)n(C)c2=O)c1=O)Cc1ccccc1C(F)(F)F` [1d]?
Answer: AChE Selectivity (human AChE [1]): 200,000; IC50 (human AChE [1]): 0.001 ± 0.0001 µM; IC50 (BChE from human plasma [2]): 200 µM

Question: Which “AChE Selectivity” value (human AChE [1]) does the source give for `CC[N+](CC)(CCCCCn1c(=O)ccn(CCCCCn2c(C)cc(=O)n(C)c2=O)c1=O)Cc1ccccc1C(F)(F)F` [1e] here?
Answer: The value was 120,000.

Question: And the IC50 (human AChE [1])?
Answer: The IC50 was 0.0005 ± 3e-05 µM.

Question: And the IC50 (BChE from human plasma [2])?
Answer: Its IC50 is 60 µM.

Question: With `CC[N+](CC)(CCCCCn1c(=O)ccn(CCCCCCn2c(C)cc(=O)n(C)c2=O)c1=O)Cc1ccccc1C(F)(F)F` [1f] as the compound, how does the “AChE Selectivity” value (human AChE [1]) read?
Answer: The value was 200,000.

Question: What about the IC50 (human AChE [1]) of the same compound?
Answer: The IC50 was 0.0002 ± 1e-05 µM.

Question: And the IC50 (BChE from human plasma [2])?
Answer: The IC50 was 40 µM.

Question: For `CC[N+](CC)(CCCCCn1c(=O)ccn(CCCn2c(C)cc(=O)n(C)c2=O)c1=O)Cc1ccccc1C#N` [2a, 1,3-{(3,6-Dimethyluracil-1-yl)-[3-(5-o-nitrilebenzyl(diethyl)ammonio)pentyl)-uracil-1-yl]}propane bromide], which IC50 (human AChE [3]; [7]) is on record?
Answer: Its IC50 is 0.0003 ± 3e-05 µM.

Question: And the IC50 (BChE from human plasma [4]; [8])?
Answer: Its IC50 is 370 µM.

Question: Which “AChE Selectivity” value (human AChE [3]; Table 1) does the source give for `CC[N+](CC)(CCCCCn1c(=O)ccn(CCCCCn2c(C)cc(=O)n(C)c2=O)c1=O)Cc1ccccc1C#N` [2c, 1,5-{(3,6-Dimethyluracil-1-yl)-[3-(5-o-nitrilebenzyl(diethyl)ammonio)pentyl)-uracil-1-yl]}pentane bromide] here?
Answer: The value was 388,888.

Question: What about the IC50 (human AChE [3]; [7]) of the same compound?
Answer: Its IC50 is 0.0002 ± 6e-05 µM.

Question: What about the IC50 (BChE from human plasma [4]; [8]) of the same compound?
Answer: Its IC50 is 70 µM.

Question: What does the source list for `CC[N+](CC)(CCCCCn1c(=O)ccn(CCCCCCn2c(C)cc(=O)n(C)c2=O)c1=O)Cc1ccccc1C#N` [2d, 1,6-{(3,6-Dimethyluracil-1-yl)-[3-(5-o-nitrilebenzyl(diethyl)ammonio)pentyl)-uracil-1-yl]}hexane bromide]?
Answer: AChE Selectivity (human AChE [3]; Table 1): 57,034; IC50 (human AChE [3]; [7]): 0.0005 ± 0.00016 µM; IC50 (BChE from human plasma [4]; [8]): 30 µM

Question: Which “AChE Selectivity” value (human AChE [3]; Table 2) does the source give for `CCN(CCCCCn1c(=O)ccn(CCCn2c(C)cc(=O)n(C)c2=O)c1=O)Cc1ccccc1C#N` [3a] here?
Answer: The value was 11,290.

Question: And the IC50 (human AChE [3]; Table 2, human AChE)?
Answer: The IC50 was 0.0061 ± 0.0007 µM.

Question: And the IC50 (BChE from human plasma [4]; Table 2, human BuChE)?
Answer: The IC50 was 69.1 µM.

Question: Which “AChE Selectivity” value (human AChE [3]; Table 2) does the source give for `CCN(CCCCCn1c(=O)ccn(CCCCn2c(C)cc(=O)n(C)c2=O)c1=O)Cc1ccccc1C#N` [3b] here?
Answer: Its value is 6090.

Question: What about the IC50 (human AChE [3]; Table 2, human AChE) of the same compound?
Answer: Its IC50 is 0.0079 ± 0.00025 µM.

Question: And the IC50 (BChE from human plasma [4]; Table 2, human BuChE)?
Answer: The IC50 was 48.3 µM.

Question: Which IC50 (human AChE [3]; Table 2, human AChE) does the source give for `CCN(CCCCCn1c(=O)ccn(CCCCCCn2c(C)cc(=O)n(C)c2=O)c1=O)Cc1ccccc1C#N` [3d] here?
Answer: Its IC50 is 0.0054 ± 0.0007 µM.

Question: What about the IC50 (BChE from human plasma [4]; Table 2, human BuChE) of the same compound?
Answer: The IC50 was 95 µM.

Question: For `CN1[C@@H]2CC[C@H]1C[C@@H](OC(=O)C(CO)c1ccccc1)C2` (stereo partly drawn) [Atropine, atropine, reference compound], which “n/N (mice surviving 5 days after POX poisoning / total)” value ([5]; atropine 15 mg/kg i.p. 1 min after POX 0.42 mg/kg i.p., no pre-treatment) is on record?
Answer: The value was 6/12.

Question: What about the “relative risk of death (RRD)” value ([5]; atropine within 1 min after POX) of the same compound?
Answer: Its value is 0.5.

Question: For `COc1cc2c(cc1OC)C(=O)C(CC1CCN(Cc3ccccc3)CC1)C2` (stereo not drawn) [Donepezil, donepezil, reference compound], which “increase in the preference for the novel object compared to the scopolamine-treated group” value ([6]; donepezil 1 mg/kg i.p. 30 min prior to testing, scopolamine 1.5 mg/kg, p = 0.03) is on record?
Answer: Its value is 32.2%.

Question: For `CCOP(=O)(OCC)Oc1ccc([N+](=O)[O-])cc1` [POX, paraoxon, reference compound], which “relative risk of death (RRD)” value ([5]; POX 0.42 mg/kg alone) is on record?
Answer: Its value is 1.

Question: And the “n/N (mice surviving 5 days after POX poisoning / total)” value ([5]; POX 0.42 mg/kg i.p. (2×LD50) alone)?
Answer: Its value is 0/12.

Question: With `COc1ccc2c3c1O[C@H]1C[C@@H](O)C=C[C@@]31CCN(C)C2` [galantamine] as the compound, how does the “selectivity for AChE over BuChE” value (AChE) read?
Answer: The value was 50 fold.

Question: With `CCN(C)C(=O)Oc1cccc([C@H](C)N(C)C)c1` [rivastigmine] as the compound, how does the “inhibition profile (AChE vs BuChE)” value (AChE) read?
Answer: The value was “non-selective”.

Question: Which “reduction of the preference for the novel object compared to the control group” value ([6]; scopolamine 1.5 mg/kg i.p. 50 min prior to testing, p = 0.0001) does the source give for `CN1[C@@H]2C[C@@H](OC(=O)[C@H](CO)c3ccccc3)C[C@H]1[C@@H]1O[C@@H]12` [scopolamine, reference compound] here?
Answer: Its value is 34.1%.
